What all share (assay): NCI-60 cell line screen, 48 h
The subject of assay [1] is NCI-H226 lung.
For assay [2], the system named is SK-OV-3 ovarian.
The test system of assay [3] is HCT-116 colon.
In assay [4] the test system is OVCAR-4 ovarian.
Assay [5] deals with HT29 colon.
Assay [6] relates to KM12 colon.
Assay [7] has as its system K-562 leukemia.
Assay [8] relates to HCT-15 colon.
In assay [9] the test system is HCC-2998 colon.
Assay [10] relates to HOP-62 NSCLC.
Assay [11] relates to IGROV1 ovarian.
Assay [12] has as its system PC-3 prostate.
In assay [13] the test system is MCF7 breast.
Assay [14] has as its system A498 renal.

Each structure is given as a SMILES string.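 All cell lines were grown in 96-well plates and treated with compound for 48 hours. Here, GI50 denotes the concentration required for 50% inhibition of growth. TGI: total growth inhibition.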 A value given as a limit tells only on which side of the number the result lay.

For the compound `Cc1c(N)c(C#N)c2n(C)c3ncccc3n2c1=O`, the TGI in assay [1], in assay [2], in assay [3], in assay [4], in assay [5] and in [6] was > 100 µM each time. Besides, the TGI in [7], in [8], in assay [9] and in assay [10] was > 100 µM throughout.

Take `CN(C)C12C=CC=CC3=C(c4ccccc4)C(c4ccccc4)=C(c4ccccc4)C31c1ccccc1C2` (stereo not drawn): the TGI in assay [11], in assay [12], in [2], in assay [3], in assay [4] and in assay [5] was > 100 µM in each case. Further, the TGI in assay [6], in [13], in assay [7], in [8], in [9] and in assay [10] was > 100 µM each time.

As to `CC1CCC2C(C)C(OC(=O)CCC(=O)O)OC3OC4(C)CCC1C32OO4` (stereo not drawn), the TGI in assay [11] is 23.1 µM; in assay [12], > 100 µM; in [2], > 100 µM; in assay [3] it was 16.3 µM; in [4] it was 27.7 µM; in [5], > 100 µM. The TGI is 23 µM in assay [6]; 28.5 µM in assay [13]; 19.8 µM in assay [7]; > 100 µM in [8]; 54.3 µM in assay [9]; > 100 µM in assay [14]. Besides, the TGI in [10] was > 100 µM.

Take `CC(=O)[CH-]C(=O)c1ccccc1.CC(=O)[CH-]C(=O)c1ccccc1.CC[C@H](CCC(C)[C@H]1CCC2[C@@H]3CC=C4C[C@@H]([O-])CC[C@]4(C)C3CC[C@@]21C)C(C)C.CC[C@H](CCC(C)[C@H]1CCC2[C@@H]3CC=C4C[C@@H]([O-])CC[C@]4(C)C3CC[C@@]21C)C(C)C.Cl.[Ti+4]` (stereo partly drawn): the TGI in [11], in assay [1], in [2], in assay [3], in assay [4] and in assay [5] was > 25 µM in each case. Also, the TGI in [6], in [7], in assay [8], in [9], in [14] and in [10] was > 25 µM each time. Further, the GI50 in assay [2] and in assay [14] was > 25 µM each time.

As to `O=C1NC(=S)NC(=O)C1=Cc1ccc([N+](=O)[O-])o1`, the TGI in assay [11] was 60.1 µM; in [1], > 100 µM; in [2] it was > 100 µM; in [3], 34 µM; in assay [4], 31.1 µM; in assay [5] it was 48.7 µM. The TGI in assay [6] was > 100 µM; in assay [7], 86.7 µM; in [8], 32.6 µM; in assay [9], > 100 µM; in [14] it was > 100 µM; in assay [10] it was > 100 µM.

Take `[N-]=[N+]=NC1(Cc2ccccc2)C(=O)Nc2ccccc2C1=O` (stereo not drawn): the TGI in [11], in [2], in assay [3], in assay [4], in [5] and in assay [6] was > 100 µM in each case. The TGI in assay [7], in [8], in [9], in [14] and in assay [10] was > 100 µM each time.

As to `COc1cc2c(cc1OC)C1CN3CCCC3C(O)C1c1cc(OC)c(OC)cc1-2` (stereo not drawn), the TGI in assay [11], in assay [2], in assay [3], in [4], in [5] and in assay [6] was > 100 µM each time. In addition, the TGI in assay [13], in [7], in assay [8], in assay [9], in assay [14] and in assay [10] was > 100 µM throughout.

For the compound `C=C1[C@@H](OC(C)=O)/C=C/C2C3C(=O)[C@@](C)(OC(C)=O)[C@H]([C@H](OC(C)=O)[C@]4(O)[C@@H](C)C(=O)O[C@H]4[C@H]1Cl)[C@@]23C` (stereo partly drawn), the TGI in assay [11], in assay [1], in assay [12], in assay [2], in assay [3] and in assay [4] was > 100 µM throughout. Moreover, the TGI in [5], in assay [6], in [7], in assay [8], in [9] and in [14] was > 100 µM each time. Besides, the TGI in [10] is > 100 µM.

On to `O=C(Cn1c2ccc(Br)cc2c2nc3ccccc3nc21)NNC(=O)NC1CCCCC1`, for which the TGI in assay [12] is > 100 µM; in [2], > 100 µM; in assay [3], > 100 µM; in assay [4] it was 42.9 µM; in assay [6], > 100 µM; in assay [13], > 100 µM. The TGI in [7] is > 100 µM; in [9] it was > 100 µM; in assay [14], > 100 µM; in assay [10], 78.8 µM.

As to `CCOC(=O)/C1=C(\C)N(Cc2ccccc2)C(=O)c2ccccc2C(=O)c2c(OC(C)=O)ccc(OC(C)=O)c21`, the TGI is > 100 µM in [11]; > 100 µM in assay [2]; > 100 µM in assay [4]; > 100 µM in assay [5]; > 100 µM in assay [6]; 58.6 µM in assay [13]. In addition, the TGI in assay [7] is > 100 µM; in [8] it was > 100 µM; in [9] it was 37.4 µM; in [14] it was > 100 µM; in [10] it was > 100 µM.
